In patent US5194424A, “C^63 -amide derivatives of 34-de(acetylglucosaminyl)-34-deoxy-teicoplanin and their use as medicaments against bacteria resistant to glycopeptide antibiotics” (Gruppo Lepetit SpA, priority 1988, dated 1993):

Columns and labels:
[1] = system: Streptococcus pneumoniae UC 41; assay: In vitro MIC, standard agar-dilution test in microtiter; type: cell-based; settings: TODD-HEWITT broth, inoculum about 10^4 CFU/ml, 18-24 h at 37° C.
Method: (§1) The antibacterial activity, of the compounds of the invention is determined in vitro by means of standard agar-dilution tests in microtiter. ISOSENSITEST broth (Oxoid) and TODD-[…] broth (Difco) are used for growing Staphylococci and Streptococci. respectively. Broth cultures are diluted so that the final inoculum is about 10^4 forming units/ml (CFU/ml).

[2] = system: Staphylococcus haemolyticus L 602; assay: as above; type: cell-based; settings: ISOSENSITEST broth, inoculum about 10^4 CFU/ml, 18-24 h at 37° C.
Method: as §1

[3] = system: Streptococcus faecalis ATCC 7080; assay: as above; type: cell-based; settings: TODD-HEWITT broth, inoculum about 10^4 CFU/ml, 18-24 h at 37° C.
Method: (§2) The antibacterial activity, of the compounds of the invention is determined in vitro by means of standard agar-dilution tests in microtiter. ISOSENSITEST broth (Oxoid) and TODD-HEWITT broth (Difco) are used for growing Staphylococci and Streptococci. respectively. Broth cultures are diluted so that the final inoculum is about 10^4 forming units/ml (CFU/ml).

[4] = system: Staphylococcus epidermidis ATCC 12228; assay: as above; type: cell-based; settings: ISOSENSITEST broth, inoculum about 10^4 CFU/ml, 18-24 h at 37° C.
Method: as §2

[5] = system: Staphylococcus aureus TOUR; assay: as above; type: cell-based; settings: ISOSENSITEST broth, inoculum about 10^4 CFU/ml, 18-24 h at 37° C.
Method: as §2

[6] = system: Streptococcus pyogenes C 203; assay: as above; type: cell-based; settings: TODD-HEWITT broth, inoculum about 10^4 CFU/ml, 18-24 h at 37° C.
Method: as §2

[7] = system: glycopeptide-resistant E. faecium; assay: In vitro MIC against glycopeptide-resistant Enterococci; type: cell-based
Method: (§3) In particular, the activity of the compounds of the invention was confirmed through in vitro experiments carried out with clinical isolates resistant to glycopeptide antibiotics such as with Enterococci faecalis, Enterococci faecium, as shown in Table IIa.
(§4) The antibacterial activity is determined in vitro by means of standard
(§5) agardilution tests in microtiter. ISOSENSITEST broth (Oxoid) is used for
(§6) growing Enterococci. Broth cultures are diluted so that the final inoculu
(§7) is about 5 × 10^5 forming units/ml (CFU/ml).

[8] = system: glycopeptide-resistant E. faecalis; assay: as above; type: cell-based
Method: as §3, §4, §5, §6, §7

[9] = system: clinical isolates of Streptococcus pyogenes; assay: MIC against clinical isolates of Streptococcus pyogenes; type: cell-based
Method: as §2

[10] = system: Streptococcus pyogenes C 203; settings: comparison statement for teicoplanin and prior-art compounds; never lower than; cited from earlier work
[11] = E. faecium L 1666, ISOSENSITEST broth, inoculum about 5 × 10^5 CFU/ml

CC(C)CCCCCCC(=O)N[C@H]1[C@H](Oc2c3cc4cc2Oc2ccc(cc2Cl)CC2NC(=O)C(NC(=O)C4NC(=O)C4NC(=O)C(Cc5ccc(c(Cl)c5)O3)NC(=O)C(N)c3ccc(O)c(c3)Oc3cc(O)cc4c3)c3ccc(O)c(c3)-c3c(O[C@H]4O[C@H](CO)[C@@H](O)[C@H](O)[C@@H]4O)cc(O)cc3C(C(=O)NCCCN(C)C)NC2=O)O[C@H](CO)[C@@H](O)[C@@H]1O (stereo partly shown) [Compound 6]
MIC [1]: 0.25 microgram/ml
MIC [2]: 1 microgram/ml
MIC [3]: 2 microgram/ml
MIC [4]: 0.12 microgram/ml
MIC [5]: 2 microgram/ml
MIC [6]: 0.06 microgram/ml

CC(C)CCCCCCC(=O)N[C@H]1[C@H](Oc2c3cc4cc2Oc2ccc(cc2Cl)CC2NC(=O)C(NC(=O)C4NC(=O)C4NC(=O)C(Cc5ccc(c(Cl)c5)O3)NC(=O)C(N)c3ccc(O)c(c3)Oc3cc(O)cc4c3)c3ccc(O)c(c3)-c3c(O[C@H]4O[C@H](CO)[C@@H](O)[C@H](O)[C@@H]4O)cc(O)cc3C(C(=O)NCCCNCCO)NC2=O)O[C@H](CO)[C@@H](O)[C@@H]1O (stereo partly shown) [Compound 7]
MIC [1]: 0.25 microgram/ml
MIC [2]: 1 microgram/ml
MIC [3]: 2 microgram/ml
MIC [4]: 0.06 microgram/ml
MIC [5]: 1 microgram/ml
MIC [6]: 0.032 microgram/ml

CC(C)CCCCCCC(=O)N[C@H]1[C@H](Oc2c3cc4cc2Oc2ccc(cc2Cl)CC2NC(=O)C(NC(=O)C4NC(=O)C4NC(=O)C(Cc5ccc(c(Cl)c5)O3)NC(=O)C(N)c3ccc(O)c(c3)Oc3cc(O)cc4c3)c3ccc(O)c(c3)-c3c(O[C@H]4O[C@H](CO)[C@@H](O)[C@H](O)[C@@H]4O)cc(O)cc3C(C(=O)NCCCN(CCCN)CCCN)NC2=O)O[C@H](CO)[C@@H](O)[C@@H]1O (stereo partly shown) [Compound 33]
MIC [1]: 0.12 microgram/ml
MIC [2]: 0.032 microgram/ml
MIC [3]: 0.12 microgram/ml
MIC [4]: 0.004 microgram/ml
MIC [5]: 0.12 microgram/ml
MIC [6]: 0.004 microgram/ml

CN[C@H](CC(C)C)C(=O)N[C@H]1C(=O)N[C@@H](CC(N)=O)C(=O)N[C@H]2C(=O)N[C@H]3C(=O)N[C@H](C(=O)N[C@H](C(=O)O)c4cc(O)cc(O)c4-c4cc3ccc4O)[C@H](O)c3ccc(c(Cl)c3)Oc3cc2cc(c3O[C@@H]2O[C@H](CO)[C@@H](O)[C@H](O)[C@H]2O[C@H]2C[C@](C)(N)[C@H](O)[C@H](C)O2)Oc2ccc(cc2Cl)[C@H]1O [VANCO, vancomycin]
MIC [7, 11]: > 128 µg/mL
MIC ([7]; Enterococcus faecium): > 128 µg/mL
MIC ([7]; Enterococcus faecium, NCTC12203): > 128 µg/mL
MIC ([8]; Enterococcus faecalis): > 128 µg/mL
MIC ([8]; Enterococcus faecalis, NCTC12201): > 128 µg/mL
MIC ([8]; Enterococcus faecalis, NCTC12202): > 128 µg/mL

teicoplanin
MIC ([9]; S. pyogenes strain L-33): 0.063 microgram/ml
MIC ([9]; S. pyogenes strain L-317): 0.063 microgram/ml
MIC ([9]; S. pyogenes strain L-800): 0.063 microgram/ml
MIC ([9]; S. pyogenes strain L-801): 0.063 microgram/ml
MIC ([9]; S. pyogenes strain L-802): 0.063 microgram/ml
MIC ([9]; S. pyogenes strain L-803): 0.063 microgram/ml
MIC ([9]; S. pyogenes strain L-804): 0.063 microgram/ml
MIC ([9]; S. pyogenes strain L-805): 0.063 microgram/ml
MIC ([9]; S. pyogenes strain L-1303): 0.063 microgram/ml
MIC ([9]; S. pyogenes strain L-1304): 0.125 microgram/ml
MIC ([9]; S. pyogenes strain L-1306): 0.125 microgram/ml
MIC ([9]; S. pyogenes strain L-1315): 0.063 microgram/ml
MIC ([9]; S. pyogenes strain L-1316): 0.063 microgram/ml
MIC ([9]; S. pyogenes strain L-1318): 0.063 microgram/ml
MIC ([9]; S. pyogenes strain L-1319): 0.063 microgram/ml
MIC against Streptococcus pyogenes [10]: ≥ 0.06 microgram/ml
MIC [7, 11]: > 128 µg/mL
MIC ([7]; E. faecium NCTC 12203, ISOSENSITEST broth, inoculum about 5 × 10^5 CFU/ml): 64 µg/mL
MIC ([7]; E. faecium NTCT 12204, ISOSENSITEST broth, inoculum about 5 × 10^5 CFU/ml): 64 µg/mL
MIC ([8]; E. faecalis L 560, ISOSENSITEST broth, inoculum about 5 × 10^5 CFU/ml): > 128 µg/mL
MIC ([8]; E. faecalis NCTC 12201, ISOSENSITEST broth, inoculum about 5 × 10^5 CFU/ml): 128 µg/mL
MIC ([8]; E. faecalis NCTC 12202, ISOSENSITEST broth, inoculum about 5 × 10^5 CFU/ml): 128 µg/mL
